Source: patent publication US7422863B2, “Molting hormone receptor and method for screening ligand to the receptor” (Kumiai Chemical Industry Co., Ltd., priority 2003, dated 2008)
“Also recorded” adds a separate entry of the source.

How the values were obtained:
Set-up in all cases: species or system Spodoptera litura
EcR-DF/USP-AE complex [1] = assay: Screening system: inhibition of [3H]ponasterone A binding to the complex by test compounds; conditions: for activity of binding to the EcR-DF/USP-AE complex: endocrine disrupters and female hormone, FIG. 25; for inhibition of the binding of [3H]ponasterone A to the complex: concentration of test compound changed, FIG. 24; for activity of binding to the complex: test compound 10,000 times stronger than [3H]ponasterone A
Experimental: In Example 7, a screening system used for screening an insect inhibitor was constructed based on the results of Examples 1 to 6. As described in Examples 1 to 6, when binding analysis was carried out using ponasterone A as an ecdysone agonist, ponasterone A binding to a complex consisting of EcR-DF and USP-AE was observed. In order to confirm whether or not this system functions as a screening system, the binding of the complex to other ecdysone agonists should also be observed. Thus, using 20-hydroxyecdysone that is an ecdysone active in living insect bodies and tebufenozide (RH-5992) that is a synthetic ecdysone agonist, the binding experiment was carried out between the […] and each of the above compounds.
First, EcR-DF and USP-AE were mixed into a binding buffer, and [^3H]ponasterone A was then added thereto in the same manner as in Example 4. Also, the same experiment was carried out with the exception that 20-hydroxyecdysone or tebufenozide that was 10,000 times stronger than [^3H]ponasterone A was added thereto, so as to obtain nonspecific binding. […] Thus, the same experiment was carried out while the concentration of 20-hydroxyecdysone or tebufenozide was changed.
Subsequently, in the present example, using a screening system in which ability to bind to the EcR-DF/USP-AE complex is used as an index, 4 types of compounds were evaluated in terms of such binding ability. As compounds to be evaluated, 4-nonylphenol, stilbestrol, and diethyl phthalate (endocrine disrupters), and estradiol-17β (female hormone) were used.

EcR-DF and USP-AE = assay: [3H]ponasterone A binding experiment using COS-7 cell extracts
Experimental: (§1) Each expression plasmid DNA was independently introduced into COS-7 cells. 48 hours later, each extract was prepared from the cells. In addition, plasmid DNA into which EcR-AF had been inserted and plasmid DNA into which USP-AE had been inserted were co-introduced into COS-7 cells, and an extract was then prepared in the same manner. Moreover, plasmid DNA into which, EcR-DF had been inserted and plasmid DNA into which USP-AE had been inserted were co-introduced into COS-7 cells, and an extract was then prepared in the same manner. Furthermore, plasmid DNA into which EcR-AF had been inserted and plasmid DNA into which USP-DE had been inserted were co-introduced into COS-7 cells, and an extract was then prepared in the same manner. Further, plasmid DNA into which EcR-DF had been inserted and plasmid DNA into which USP-DE had been inserted were co-introduced into COS-7 cells, and an extract was then prepared in the same manner. The expression of a product of interest in the COS-7 cells was confirmed by Western blotting using an anti-FLAG antibody.
(§2) By the aforementioned operations, 4 types of extracts containing each of EcR-AF, EcR-DF, USP-AE, and USP-DE, an extract containing the coexpressed EcR-AF and USP-AE, an extract containing the coexpressed EcR-DF and USP-AE, an extract containing the coexpressed EcR-AF and USP-DE, and an extract containing the coexpressed EcR-DF and USP-DE, were prepared.
(§3) In order to prevent the non-specific binding of ponasterone A to a receptor (a complex consisting of an EcR recombinant and a USP recombinant), 1% BSA was first added to a binding buffer (20 mM HEPES (pH7.4)/5 mM DTT/1 nM PMSF). Thereafter, USP-AE or USP-DE was mixed with the EcR-AF, EcR-DF, EcR-DE, EcR-EF, or EcR-E, purified in Example 2. Thereafter, [^3H]ponasterone A ([24, 25, 26, 27-3H] Ponasterone A (American Radiolabeled Chemicals Inc.)) with a final concentration of 1.37 nM was further added thereto. The obtained mixture was reacted at 25° C. 40 minutes later, the reaction was terminated by addition of 200 μl of an activated carbon solution (0.5% Charcoal, dextran coated (SIGMA)/20 mm HEPES/50 mM NaCl). A supernatant fraction obtained after centrifugation was mixed with a liquid scintillator, and the radioactivity (DPM) of the obtained mixture was measured using a liquid scintillation counter (ALOKA LSC-5100). The obtained measurement value was defined as the total binding amount. Moreover, the same experiment was carried out with the exception that nonradioactive ponasterone A that was 10,000 times stronger than [^3H]ponasterone A was added. Then, the amount of a ligand non-specifically binding to a receptor was obtained. […]

EcR-DF and USP-DE = assay: as above
Experimental: as §1, §2, §3

[2] = test system: complex consisting of EcR-DF and USP-AE; assay: [3H]ponasterone A binding experiment, charcoal dextran method, recombinants expressed in Escherichia coli
Text: (§4) In Example 4, in order to separate a binding form from a free form, the charcoal dextran method was applied. This is a common method applied when a steroid hormone is used as a ligand. By adding an activated carbon solution coated with dextran to a reaction solution when the reaction is terminated, a ligand that has not bound to a receptor is adsorbed on the activated carbon. Thereafter, the reaction solution is centrifuged, thereby separating an activated carbon fraction (precipitate fraction) from a supernatant fraction in which a receptor/ligand complex exists.
In order to prevent the non-specific binding of ponasterone A to a receptor (a complex consisting of an EcR recombinant and a USP recombinant), 1% BSA was first added to a binding buffer (20 mM HEPES (pH7.4)/5 mM DTT/1 nM PMSF). Thereafter, USP-AE or USP-DE was mixed with the EcR-AF, EcR-DF, EcR-DE, EcR-EF, or EcR-E, purified in Example 2. Thereafter, [^3H]ponasterone A ([24, 25, 26, 27-3H] Ponasterone A (American Radiolabeled Chemicals Inc.)) with a final concentration of 1.37 nM was further added thereto. The obtained mixture was reacted at 25° C. 40 minutes later, the reaction was terminated by addition of 200 μl of an activated carbon solution (0.5% Charcoal, dextran coated (SIGMA)/20 mm HEPES/50 mM NaCl). A supernatant fraction obtained after centrifugation was mixed with a liquid scintillator, and the radioactivity (DPM) of the obtained mixture was measured using a liquid scintillation counter (ALOKA LSC-5100). The obtained measurement value was defined as the total binding amount. Moreover, the same experiment was carried out with the exception that nonradioactive ponasterone A that was 10,000 times stronger than [^3H]ponasterone A was added. Then, the amount of a ligand non-specifically binding to a receptor was obtained. The amount of a ligand specifically binding to a receptor was defined as a value obtained by subtracting the non-specific binding amount from the total binding amount.
The optimal reaction time for a binding reaction between a complex consisting of EcR-DF and USP-AE and a ligand was analyzed as follows. First, USP-AE with various types of concentrations was added to a certain amount of EcR-DF, and the obtained mixture was then reacted at 25° C. for 40 minutes in a water bath. The concentration of ponasterone A in the reaction solution was set at 1.34 nM. […]
The optimal reaction time for a binding reaction between a complex consisting of EcR-DF and USP-AE and a ligand was analyzed as follows. […]
The optimal reaction temperature for a binding reaction between a complex consisting of EcR-DF and USP-AE and a ligand was analyzed as follows. […]

EcR or USP (single use) = assay: [3H]ponasterone A binding experiment, charcoal dextran method, single use of EcR or USP recombinant; conditions: regardless of length, FIG. 16
Text: as §4
as §3, with “Thereafter, USP-AE or USP-DE was mixed with the EcR-AF, EcR-DF, EcR-DE, EcR-EF, or EcR-E, purified in Example 2.” left out, “LSC-5100).” for “LSC-5100). The obtained measurement value was defined as the total binding amount. Moreover, the same experiment was carried out with the exception that nonradioactive ponasterone A that was 10,000 times stronger than [^3H]ponasterone A was added. Then, the amount of a ligand non-specifically binding to a receptor was obtained.”

[3] = test system: complex consisting of EcR-DF and USP-DE; assay: [3H]ponasterone A binding experiment, charcoal dextran method, recombinants expressed in Escherichia coli; conditions: E. coli-expressed recombinants; 1.37 nM [3H]ponasterone A, 25° C., 40 minutes; FIG. 16
Text: as §4
In order to prevent the non-specific binding of ponasterone A to a receptor (a complex consisting of an EcR recombinant and a USP recombinant), 1% BSA was first added to a binding buffer (20 mM HEPES (pH7.4)/5 mM DTT/1 nM PMSF). Thereafter, USP-AE or USP-DE was mixed with the EcR-AF, EcR-DF, EcR-DE, EcR-EF, or EcR-E, purified in Example 2. Thereafter, [^3H]ponasterone A ([24, 25, 26, 27-3H] Ponasterone A (American Radiolabeled Chemicals Inc.)) with a final concentration of 1.37 nM was further added thereto. The obtained mixture was reacted at 25° C. […] A supernatant fraction obtained after centrifugation was mixed with a liquid scintillator, and the radioactivity (DPM) of the obtained mixture was measured using a liquid scintillation counter (ALOKA LSC-5100). […]

EcR-DF/USP-AE complex [4] = assay: Scatchard analysis of binding of complex to [3H]ponasterone A; conditions: EcR-DF:USP-AE 1:1, FIG. 23, read-out: dissociation constant (Kd)
Experimental: In Example 6, using EcR-DF and USP-AE, the dissociation constant (Kd) of the complex to ponasterone A was obtained as follows. First, EcR-DF was mixed with USP-AE at a molar ratio of 1:1, and [^3H]ponasterone A with various concentrations was then added to the mixture. An activated carbon solution was added to the reaction solution to eliminate free ligands. The amount of the EcR-DF/USP-AE complex binding to [^3H]ponasterone A (total binding amount) was obtained by measuring the radioactivity of a supernatant fraction obtained after centrifugation. Moreover, the same experiment was carried out with the exception that nonradioactive ponasterone A that was 10,000 times stronger than [^3H]ponasterone A was added, so as to obtained non-specific binding. In FIG. 23, the horizontal axis indicates the specific bound amount of [^3H]ponasterone A (nM), the vertical axis indicates specific binding amount (bound)/total binding amount-specific binding amount (free).

[5] = test system: EcR-AF combined with USP-AE or USP-DE; assay: [3H]ponasterone A binding experiment with full-length EcR recombinant
Experimental: as §1, with “The expression of a product of interest in the COS-7 cells was confirmed by Western blotting using an anti-FLAG antibody.” left out
In order to prevent the non-specific binding of ponasterone A to a receptor (a complex consisting of an EcR recombinant and a USP recombinant), 1% BSA was first added to a binding buffer (20 mM HEPES (pH7.4)/5 mM DTT/1 nM PMSF). […] A supernatant fraction obtained after centrifugation was mixed with a liquid scintillator, and the radioactivity (DPM) of the obtained mixture was measured using a liquid scintillation counter (ALOKA LSC-5100). […]

[6] = coexpressed in COS-7 cells, FIG. 17 lanes 7 and 8
[7] = singly expressed in COS-7 cells, then mixed, FIG. 17 lanes 3 and 4

## CC/C(=C(/CC)c1ccc(O)cc1)c1ccc(O)cc1 [stilbestrol]
EcR-DF/USP-AE complex [1]
  activity of binding to the EcR-DF/USP-AE complex: exhibited activity of binding; also recorded: exhibited strong binding activity

## C[C@]12CC[C@@H]3c4ccc(O)cc4CC[C@H]3[C@@H]1CC[C@@H]2O [estradiol-17β]
EcR-DF/USP-AE complex [1]
  activity of binding to the EcR-DF/USP-AE complex: exhibited activity of binding

## CC(C)(O)CC[C@@H](O)[C@](C)(O)[C@H]1CC[C@@]2(O)C3=CC(=O)[C@@H]4C[C@@H](O)[C@@H](O)C[C@]4(C)[C@H]3CC[C@]12C [20-hydroxyecdysone]
EcR-DF/USP-AE complex [1]
  inhibition of the binding of [3H]ponasterone A to the complex: concentration-dependently inhibit
  activity of binding to the complex: exhibited activity of binding

## CCCCCCCCCc1ccc(O)cc1 [4-nonylphenol]
EcR-DF/USP-AE complex [1]
  activity of binding to the EcR-DF/USP-AE complex: exhibited activity of binding; also recorded: exhibited strong binding activity

## CCc1ccc(C(=O)NN(C(=O)c2cc(C)cc(C)c2)C(C)(C)C)cc1 [tebufenozide]
EcR-DF/USP-AE complex [1]
  inhibition of the binding of [3H]ponasterone A to the complex: concentration-dependently inhibit
  activity of binding to the complex: exhibited activity of binding

## CC(C)CC[C@@H](O)[C@](C)(O)[C@H]1CC[C@@]2(O)C3=CC(=O)[C@@H]4C[C@@H](O)[C@@H](O)C[C@]4(C)[C@H]3CC[C@]12C [ponasterone A]
EcR-DF and USP-AE; [6]
  binding to a ligand (ponasterone A): a strong binding to a ligand was observed
EcR-DF and USP-AE; [7]
  binding to a ligand (ponasterone A): no such bindings were observed
EcR-DF and USP-DE; [6]
  binding to a ligand (ponasterone A): a strong binding to a ligand was observed
EcR-DF and USP-DE; [7]
  binding to a ligand (ponasterone A): no such bindings were observed
[2]; 25° C., 1.34 nM ponasterone A, EcR-DF:USP-AE 1:1
  time necessary for saturation of the binding: 60 min
[2]; E. coli-expressed recombinants, 1.37 nM [3H]ponasterone A, 25° C., 40 minutes, FIG. 16
  ability to bind to a ligand (specific binding of [3H]ponasterone A): had ability to bind
[2]; NaCl 0, 50, 100, 300, 500 mM, 25° C., FIG. 21
  effect of salt (NaCl) concentration on specific binding of ligand to the complex: as the salt concentration increased, the specific binding of a ligand to the above complex decreased
[2]; low-temperature chamber at 4° C.
  time necessary for saturation of the binding: 480 min
EcR or USP (single use)
  specific binding of [3H]ponasterone A: no specific bindings were observed
[3]
  ability to bind to a ligand (specific binding of [3H]ponasterone A): had ability to bind
EcR-DF/USP-AE complex [4]
  Kd: 2.79 nM
[5]; COS-7 extracts, coexpression and mixing after single expression, FIG. 17
  binding to a ligand (ponasterone A): no bindings to a ligand were observed
[5]; both Escherichia coli and mammalian cell expression systems
  binding of the full-length EcR recombinant (EcR-AF) to ponasterone A: extremely weak
